Reference: publication PMC10410440, “Preclinical PK investigation of a novel IDO1/TDO dual inhibitor—SHR9146 in mouse plasma and tissues by LC-MS/MS” (Frontiers in Oncology, 2023)
“Also recorded” adds a separate entry of the source. Where two headings read alike, the source gives them in different places.

Assay: Tissue distribution of SHR9146 in mice after oral gavage of 40 mg/kg
Assay type: in vivo, ICR mice
Settings: for concentration at 6 h / concentration at 24 h / concentration at 1 h / concentration at 3 h: male, ICR, mouse, po, 40 mg/kg oral gavage
Description: ICR mice with body weight 16–26 g were supplied by Shanghai Lingchang Biotechnology Co., Ltd. (animal breeding license number SCXK (Shanghai) 2013-0018) and housed at Shanghai Institute of Materia Medica, Chinese Academy of Sciences [animal use license number SYXK (Shanghai) 2015-0027]. The mice used in this study were fasted overnight for 12 h but had free access to water. Food was supplied 4 h post-dose. All experiments in this study were conducted in accordance with the Guidelines for the Care and Use of Laboratory Animals of Shanghai Institute of Materia Medica, Chinese Academy of Sciences.
Another set of 30 mice were randomly assigned into five groups with equal numbers, males and females, for tissue distribution study with oral gavage at a single dose of 40 mg/kg at predetermined different time points: pre-dose and post dose at 1, 3, 6, and 24 h, respectively. The whole brain, heart, liver, spleen, lung, kidney, bladder, pancreas, testis, ovary, uterus, stomach, small intestine, adrenal gland, skin, skeletal muscle, thyroid gland, and abdominal fat tissues as well as the whole blood and plasma samples were harvested. Tissue samples were washed with 0.9% sodium chloride solution to remove the residual blood or contents, blotted on a filter paper, and stored at −70°C prior to the analysis.
Protein precipitation was selected for the pretreatment of both the plasma and the tissue homogenate prepared after thawing at room temperature, cut into pieces, and homogenized with a quintuple methanol–water mixture (1:1, v/v) for each tissue sample.
Briefly as follows, an aliquot of 25-μL plasma or tissue homogenate was spiked with 100 μL of internal standard solution (1 μg/mL for plasma, 0.2 μg/mL for tissue homogenate) and 300 μL of methanol added and vortex mixed for 60 s. The mixture was then centrifuged at 14,000 rpm at 4°C for 5.0 min, and the supernatant was diluted with methanol–water (4:1, v/v) in a ratio of 1:9 for the plasma or 1:1 for the tissue homogenate, and 5 μL of the resulting solution was injected for the LC-MS/MS analysis.
After oral administration of 40 mg/kg SHR9146, samples in different tissues at predetermined time points (pre-drug administration, post-drug administration at 1, 3, 6, and 24 h) were collected and prepared for the analysis. The drug concentrations of SHR9146 (μg/g or μg/mL) were determined for each mouse, and the mean and standard deviation were further obtained (Table S7).

[1] = kidney, 40 mg/kg, Mean (n=3), read-out: SHR9146 concentration in Kidney
[2] = liver, 40 mg/kg, Mean (n=3), read-out: SHR9146 concentration in Liver
[3] = liver, 40 mg/kg, individual mice, read-out: SHR9146 concentration in Liver
[4] = lung, 40 mg/kg, Mean (n=3), read-out: SHR9146 concentration in Lung
[5] = lung, 40 mg/kg, individual mice, read-out: SHR9146 concentration in Lung
[6] = pancreas, 40 mg/kg, Mean (n=3), read-out: SHR9146 concentration in Pancreas
[7] = pancreas, 40 mg/kg, individual mice, read-out: SHR9146 concentration in Pancreas
[8] = plasma, 40 mg/kg, Mean (n=3), read-out: SHR9146 concentration in Plasma
[9] = plasma, 40 mg/kg, individual mice, read-out: SHR9146 concentration in Plasma
[10] = skeletal muscle, 40 mg/kg, Mean (n=3), read-out: SHR9146 concentration in Skeletal muscle
[11] = skeletal muscle, 40 mg/kg, individual mice, read-out: SHR9146 concentration in Skeletal muscle
[12] = skin, 40 mg/kg, Mean (n=3), read-out: SHR9146 concentration in Skin
[13] = small intestine, 40 mg/kg, Mean (n=3), read-out: SHR9146 concentration in Small intestine
[14] = small intestine, 40 mg/kg, individual mice, read-out: SHR9146 concentration in Small intestine
[15] = spleen, 40 mg/kg, Mean (n=3), read-out: SHR9146 concentration in Spleen
[16] = spleen, 40 mg/kg, individual mice, read-out: SHR9146 concentration in Spleen
[17] = stomach, 40 mg/kg, Mean (n=3), read-out: SHR9146 concentration in Stomach
[18] = testis, 40 mg/kg, Mean (n=3), read-out: SHR9146 concentration in Testis
[19] = thyroid gland, 40 mg/kg, Mean (n=3), read-out: SHR9146 concentration in thyroid gland
[20] = thyroid gland, 40 mg/kg, individual mice, read-out: SHR9146 concentration in thyroid gland
[21] = whole blood, 40 mg/kg, Mean (n=3), read-out: SHR9146 concentration in Whole blood
[22] = whole blood, 40 mg/kg, individual mice, read-out: SHR9146 concentration in Whole blood

OCCn1cc(-c2ccc(N3CCC([C@H]4c5c(F)cccc5-c5cncn54)CC3)cc2)cn1 [SHR9146]
concentration at 6 h [1]: 210 ng/g
concentration at 24 h [1]: 18 ng/g
concentration at 24 h (kidney, 40 mg/kg, individual mice, read-out: SHR9146 concentration in Kidney): 55 ng/g
concentration at 1 h [2]: 20000 ng/g
concentration at 1 h [3]: 22000 ng/g
concentration at 3 h [2]: 9670 ng/g
concentration at 6 h [2]: 633 ng/g
concentration at 24 h [2]: 110 ng/g
concentration at 24 h [3]: 330 ng/g
concentration at 1 h [4]: 12500 ng/g
concentration at 1 h [5]: 13100 ng/g
concentration at 3 h [4]: 5160 ng/g
concentration at 6 h [4]: 645 ng/g
concentration at 6 h [5]: 725 ng/g
concentration at 24 h [4]: 11700 ng/g
concentration at 1 h [6]: 12600 ng/g
concentration at 1 h [7]: 13800 ng/g
concentration at 3 h [6]: 4870 ng/g
concentration at 6 h [6]: 67 ng/g
concentration at 6 h [7]: 74 ng/g
concentration at 1 h [8]: 9120 ng/mL
concentration at 1 h [9]: 10100 ng/mL
concentration at 3 h [8]: 3710 ng/mL
concentration at 6 h [8]: 49 ng/mL
concentration at 6 h [9]: 53 ng/mL
concentration at 1 h [10]: 5600 ng/g
concentration at 1 h [11]: 6100 ng/g
concentration at 3 h [10]: 2220 ng/g
concentration at 6 h [10]: 23 ng/g
concentration at 6 h [11]: 70 ng/g
concentration at 1 h [12]: 7210 ng/g
concentration at 3 h [12]: 3110 ng/g
concentration at 6 h [12]: 113 ng/g
concentration at 24 h [12]: 21 ng/g
concentration at 24 h (skin, 40 mg/kg, individual mice, read-out: SHR9146 concentration in Skin): 64 ng/g
concentration at 1 h [13]: 22700 ng/g
concentration at 1 h [14]: 19200 ng/g
concentration at 3 h [13]: 6910 ng/g
concentration at 6 h [13]: 90 ng/g
concentration at 6 h [14]: 117 ng/g
concentration at 1 h [15]: 4840 ng/g
concentration at 1 h [16]: 5540 ng/g
concentration at 3 h [15]: 1700 ng/g
concentration at 6 h [15]: 17 ng/g
concentration at 6 h [16]: 51 ng/g
concentration at 1 h [17]: 38000 ng/g
concentration at 1 h (stomach, 40 mg/kg, individual mice, read-out: SHR9146 concentration in Stomach): 39900 ng/g
concentration at 3 h [17]: 10200 ng/g
concentration at 6 h [17]: 1140 ng/g
concentration at 24 h [17]: 499 ng/g
concentration at 1 h [18]: 4000 ng/g
concentration at 1 h (testis, 40 mg/kg, individual mice, read-out: SHR9146 concentration in Testis): 4160 ng/g
concentration at 3 h [18]: 1660 ng/g
concentration at 6 h [18]: 100 ng/g
concentration at 1 h [19]: 7010 ng/g
concentration at 1 h [20]: 7250 ng/g
concentration at 3 h [19]: 2730 ng/g
concentration at 6 h [19]: 63 ng/g
concentration at 6 h [20]: 71 ng/g
concentration at 1 h [21]: 6060 ng/mL
concentration at 1 h [22]: 6820 ng/mL
concentration at 3 h [21]: 2440 ng/mL
concentration at 6 h [21]: 22 ng/mL
concentration at 6 h [22]: 67 ng/mL
distribution into brain (oral 40 mg/kg, mice, 40 mg/kg): lowest; also recorded: rarely distributed in the brain
tissue distribution (oral 40 mg/kg, mice, 40 mg/kg): widely distributed in various tissues and mainly distributed in the stomach, adrenal gland, liver, and lung
tissue concentration at 24 h as share of the highest concentration (oral 40 mg/kg, mice, last time point 24 h): around 3.1%
